Assays:
Format in all cases: in vivo
[1] = system: barnyardgrass (Echinochloa crus-galli); experiment: Test D flooded paddy test, visual plant response rating; conditions: 250 g ai/ha, scale 0 to 100 (0 no effect, 100 complete control), 13 to 15 d
Summary of the method: (§1)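 Visual injury scores, 0 (no effect) to 100 (complete control), were assigned after 13 to 15 d in the greenhouse by comparison with controls. Test compounds had been added to paddy water covering soil by 3 cm at the 2-leaf stage.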

[2] = system: sedge umbrella (small-flower umbrella sedge, Cyperus difformis); experiment: as above; conditions: 250 g ai/ha, scale 0 to 100 (0 no effect, 100 complete control), 13 to 15 d
Summary of the method: as §1

rice (Oryza sativa) = experiment: as above; conditions: 250 g ai/ha, scale 0 to 100 (0 no effect, 100 complete control), 13 to 15 d
Summary of the method: as §1

[3] = system: duck salad (Heteranthera limosa); experiment: as above; conditions: 250 g ai/ha, scale 0 to 100 (0 no effect, 100 complete control), 13 to 15 d
Summary of the method: as §1

kochia (Bassia scoparia) [4] = experiment: Test C preemergence, visual plant response rating; conditions: Test C, 0 is no effect, 100 is complete control
Summary of the method: (§2)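 Visual injury on a 0 (no effect) to 100 (complete control) scale versus untreated controls, scored approximately 10 d after treatment under greenhouse conditions. Treatments used surfactant-containing non-phytotoxic solvent formulations, sprayed onto loam–sand soil preemergence or onto one- to two-leaf plants 2–10 cm tall postemergence.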

[5] = system: barnyardgrass (Echinochloa crus-galli); experiment: Test C preemergence, visual plant response rating; conditions: Test C, 0 is no effect, 100 is complete control
Summary of the method: as §2

[6] = system: ragweed (common ragweed, Ambrosia artemisiifolia); experiment: Test C preemergence, visual plant response rating; conditions: Test C, 0 is no effect, 100 is complete control
Summary of the method: as §2

[7] = system: foxtail, giant (giant foxtail, Setaria faberi); experiment: Test C preemergence, visual plant response rating; conditions: Test C, 0 is no effect, 100 is complete control
Summary of the method: as §2

[8] = system: Italian ryegrass (Lolium mutiflorum); experiment: Test C preemergence, visual plant response rating; conditions: Test C, 0 is no effect, 100 is complete control
Summary of the method: as §2

[9] = system: pigweed (Amaranthus retroflexus); experiment: Test C preemergence, visual plant response rating; conditions: Test C, 0 is no effect, 100 is complete control
Summary of the method: as §2

kochia (Bassia scoparia) [10] = experiment: Test C postemergence, visual plant response rating
Summary of the method: as §2

[11] = system: barnyardgrass (Echinochloa crus-galli); experiment: Test C postemergence, visual plant response rating
Summary of the method: as §2

[12] = system: ragweed (common ragweed, Ambrosia artemisiifolia); experiment: Test C postemergence, visual plant response rating
Summary of the method: as §2

[13] = system: foxtail, giant (giant foxtail, Setaria faberi); experiment: Test C postemergence, visual plant response rating
Summary of the method: as §2

[14] = system: Italian ryegrass (Lolium mutiflorum); experiment: Test C postemergence, visual plant response rating
Summary of the method: as §2

[15] = system: blackgrass (Alopecurus myosuroides); experiment: Test C postemergence, visual plant response rating
Summary of the method: as §2

corn (Zea mays) = experiment: Test C postemergence, visual plant response rating
Summary of the method: as §2

[16] = system: pigweed (Amaranthus retroflexus); experiment: Test C postemergence, visual plant response rating
Summary of the method: as §2

[17] = system: galium (catchweed bedstraw, Galium aparine); experiment: Test C postemergence, visual plant response rating
Summary of the method: as §2

[18] = system: wheat (Triticum aestivum); experiment: Test C postemergence, visual plant response rating
Summary of the method: as §2

[19] = Test C, postemergence, 125 g ai/ha

Row | SMILES | Plant response rating, Barnyardgrass (Flood) [1] | Plant response rating, Sedge, Umbrella (Flood) [2] | Plant response rating, Rice (Flood) (rice (Oryza sativa)) | Plant response rating, Ducksalad (Flood) [3] | Kochia plant response rating (0 to 100 scale) (kochia (Bassia scoparia) [4]; 31 g ai/ha) | Kochia plant response rating (0 to 100 scale) (kochia (Bassia scoparia) [4]; 125 g ai/ha) | Barnyardgrass plant response rating (0 to 100 scale) ([5]; 31 g ai/ha) | Barnyardgrass plant response rating (0 to 100 scale) ([5]; 125 g ai/ha) | Ragweed plant response rating (0 to 100 scale) ([6]; 31 g ai/ha) | Ragweed plant response rating (0 to 100 scale) ([6]; 125 g ai/ha) | Foxtail, Giant plant response rating (0 to 100 scale) ([7]; 31 g ai/ha) | Foxtail, Giant plant response rating (0 to 100 scale) ([7]; 125 g ai/ha) | Ryegrass, Italian plant response rating (0 to 100 scale) ([8]; 31 g ai/ha) | Ryegrass, Italian plant response rating (0 to 100 scale) ([8]; 125 g ai/ha) | Pigweed plant response rating (0 to 100 scale) ([9]; 31 g ai/ha) | Pigweed plant response rating (0 to 100 scale) ([9]; 125 g ai/ha) | Kochia plant response rating (0 to 100 scale) (kochia (Bassia scoparia) [10]; Postemergence, 31 g ai/ha) | Kochia plant response rating (0 to 100 scale) (kochia (Bassia scoparia) [10]; [19]) | Barnyardgrass plant response rating (0 to 100 scale) ([11]; Postemergence, 31 g ai/ha) | Barnyardgrass plant response rating (0 to 100 scale) [11, 19] | other results
1 | CO/N=C(/c1cccc(/C=C/Cl)c1)c1c(O)c(C)nn(C)c1=O [Compound 285] | 0 | 0 | 0 | 0 | 0 | 0 | 0 | 0 | 0 | 10 | 0 | 0 | 0 | 10 | 0 | 0 | 10 | 20 | 20 | 30 | Ragweed plant response rating (0 to 100 scale) ([12]; Postemergence, 31 g ai/ha): 30; Ragweed plant response rating (0 to 100 scale) [12, 19]: 60; Foxtail, Giant plant response rating (0 to 100 scale) ([13]; Postemergence, 31 g ai/ha): 10; Foxtail, Giant plant response rating (0 to 100 scale) [13, 19]: 20; Ryegrass, Italian plant response rating (0 to 100 scale) ([14]; Postemergence, 31 g ai/ha): 0; Ryegrass, Italian plant response rating (0 to 100 scale) [14, 19]: 0; Blackgrass plant response rating (0 to 100 scale) ([15]; Postemergence, 31 g ai/ha): 0; Blackgrass plant response rating (0 to 100 scale) [15, 19]: 10; Corn plant response rating (0 to 100 scale) (corn (Zea mays); Postemergence, 31 g ai/ha): 0; Corn plant response rating (0 to 100 scale) (corn (Zea mays); [19]): 0; Pigweed plant response rating (0 to 100 scale) ([16]; Postemergence, 31 g ai/ha): 0; Pigweed plant response rating (0 to 100 scale) [16, 19]: 70; Galium plant response rating (0 to 100 scale) ([17]; Postemergence, 31 g ai/ha): 50; Galium plant response rating (0 to 100 scale) [17, 19]: 60; Wheat plant response rating (0 to 100 scale) ([18]; Postemergence, 31 g ai/ha): 0; Wheat plant response rating (0 to 100 scale) [18, 19]: 0
2 | C#CCON=C(c1cccc(OCC(F)(F)F)c1)c1c(O)c(C)nn(C)c1=O [Compound 197] | 0 | 0 | 0 | 0 | 0 | 0 | 0 | 0 | 0 | 0 | 0 | 10 | 0 | 20 | 0 | 20 | 0 | 0 | 0 | 10 | Ragweed plant response rating (0 to 100 scale) ([12]; Postemergence, 31 g ai/ha): 0; Ragweed plant response rating (0 to 100 scale) [12, 19]: 0; Foxtail, Giant plant response rating (0 to 100 scale) ([13]; Postemergence, 31 g ai/ha): 0; Foxtail, Giant plant response rating (0 to 100 scale) [13, 19]: 20; Ryegrass, Italian plant response rating (0 to 100 scale) ([14]; Postemergence, 31 g ai/ha): 0; Ryegrass, Italian plant response rating (0 to 100 scale) [14, 19]: 20; Blackgrass plant response rating (0 to 100 scale) ([15]; Postemergence, 31 g ai/ha): 0; Blackgrass plant response rating (0 to 100 scale) [15, 19]: 30; Corn plant response rating (0 to 100 scale) (corn (Zea mays); Postemergence, 31 g ai/ha): 0; Corn plant response rating (0 to 100 scale) (corn (Zea mays); [19]): 0; Pigweed plant response rating (0 to 100 scale) ([16]; Postemergence, 31 g ai/ha): 10; Pigweed plant response rating (0 to 100 scale) [16, 19]: 30; Galium plant response rating (0 to 100 scale) ([17]; Postemergence, 31 g ai/ha): 0; Galium plant response rating (0 to 100 scale) [17, 19]: 30; Wheat plant response rating (0 to 100 scale) ([18]; Postemergence, 31 g ai/ha): 0; Wheat plant response rating (0 to 100 scale) [18, 19]: 0
3 | C=CCO/N=C(/c1c(O)c(C)nn(C)c1=O)c1cccc2cc(Cl)ccc12 [Compound 246] | 90 | 100 | 90 | 95 | 0 | 0 | 60 | 80 | 100 | 90 | 80 | 80 | 30 | 60 | 90 | 100 | 0 | 20 | 40 | 70 | Ragweed plant response rating (0 to 100 scale) ([12]; Postemergence, 31 g ai/ha): 80; Ragweed plant response rating (0 to 100 scale) [12, 19]: 100; Foxtail, Giant plant response rating (0 to 100 scale) ([13]; Postemergence, 31 g ai/ha): 70; Foxtail, Giant plant response rating (0 to 100 scale) [13, 19]: 70; Ryegrass, Italian plant response rating (0 to 100 scale) ([14]; Postemergence, 31 g ai/ha): 0; Ryegrass, Italian plant response rating (0 to 100 scale) [14, 19]: 30; Blackgrass plant response rating (0 to 100 scale) ([15]; Postemergence, 31 g ai/ha): 50; Blackgrass plant response rating (0 to 100 scale) [15, 19]: 70; Corn plant response rating (0 to 100 scale) (corn (Zea mays); Postemergence, 31 g ai/ha): 20; Corn plant response rating (0 to 100 scale) (corn (Zea mays); [19]): 10; Pigweed plant response rating (0 to 100 scale) ([16]; Postemergence, 31 g ai/ha): 70; Pigweed plant response rating (0 to 100 scale) [16, 19]: 80; Galium plant response rating (0 to 100 scale) ([17]; Postemergence, 31 g ai/ha): 80; Galium plant response rating (0 to 100 scale) [17, 19]: 90; Wheat plant response rating (0 to 100 scale) ([18]; Postemergence, 31 g ai/ha): 0; Wheat plant response rating (0 to 100 scale) [18, 19]: 0
4 | CCOc1cccc(C(=NOC)c2c(O)c(C)nn(C)c2=O)c1 [Compound 200] | 0 | 0 | 0 | 0 | 0 | 0 | 0 | 0 | 0 | 0 | 0 | 10 | 0 | 0 | 0 | 0 | 0 | 0 | 20 | 30 | Ragweed plant response rating (0 to 100 scale) ([12]; Postemergence, 31 g ai/ha): 0; Ragweed plant response rating (0 to 100 scale) [12, 19]: 0; Foxtail, Giant plant response rating (0 to 100 scale) ([13]; Postemergence, 31 g ai/ha): 10; Foxtail, Giant plant response rating (0 to 100 scale) [13, 19]: 20; Ryegrass, Italian plant response rating (0 to 100 scale) ([14]; Postemergence, 31 g ai/ha): 0; Ryegrass, Italian plant response rating (0 to 100 scale) [14, 19]: 0; Blackgrass plant response rating (0 to 100 scale) ([15]; Postemergence, 31 g ai/ha): 0; Blackgrass plant response rating (0 to 100 scale) [15, 19]: 0; Corn plant response rating (0 to 100 scale) (corn (Zea mays); Postemergence, 31 g ai/ha): 0; Corn plant response rating (0 to 100 scale) (corn (Zea mays); [19]): 0; Pigweed plant response rating (0 to 100 scale) ([16]; Postemergence, 31 g ai/ha): 0; Pigweed plant response rating (0 to 100 scale) [16, 19]: 0; Galium plant response rating (0 to 100 scale) ([17]; Postemergence, 31 g ai/ha): 30; Galium plant response rating (0 to 100 scale) [17, 19]: 40; Wheat plant response rating (0 to 100 scale) ([18]; Postemergence, 31 g ai/ha): 0; Wheat plant response rating (0 to 100 scale) [18, 19]: 0
